Data from US10844051B2, “Substituted oxazoles for the treatment of cancer” (THE ROYAL INSTITUTION FOR THE ADCANCEMENT OF …, priority 2015, dated 2020).
“Also recorded” adds a separate entry of the source.

Tests used:
[1] = target: T1, recombinant protein of human GATA2 (Homo sapiens, UniProt P23769); experiment: SPR analysis on amine-coupled GATA2; format: binding; details: 50 μM each
T1 sequence (P23769 1-480): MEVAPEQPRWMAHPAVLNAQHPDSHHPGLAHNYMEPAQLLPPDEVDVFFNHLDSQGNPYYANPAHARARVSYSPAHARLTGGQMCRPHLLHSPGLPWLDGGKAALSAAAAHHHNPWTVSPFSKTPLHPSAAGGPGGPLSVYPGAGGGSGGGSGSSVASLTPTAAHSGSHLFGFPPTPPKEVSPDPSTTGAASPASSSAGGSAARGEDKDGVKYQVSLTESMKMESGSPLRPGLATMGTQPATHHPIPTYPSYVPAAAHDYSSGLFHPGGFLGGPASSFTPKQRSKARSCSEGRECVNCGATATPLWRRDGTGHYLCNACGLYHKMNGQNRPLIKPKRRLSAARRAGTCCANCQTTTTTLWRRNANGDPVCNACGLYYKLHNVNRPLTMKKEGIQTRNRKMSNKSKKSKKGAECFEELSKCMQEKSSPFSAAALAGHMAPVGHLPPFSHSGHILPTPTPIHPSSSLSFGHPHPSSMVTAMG
Text: In embodiments of the invention, the androgen-bound AR is regressing GATA2 expression and inhibition of AR via castration or use of antiandrogen releases such expression. […] Overexpression of GATA2 confers resistance to antiandrogen bicalutamide (Bic) (FIG. 2.9). Compound 673 is effective against the LNCaP stably transfected with GATA2-expressing plasmid (referred to as LNCaP-GATA2 cells) (FIG. 2.8).

human GATA2 = target: T2, human GATA2 (Homo sapiens, UniProt P23769); experiment: GATA2-dependent reporter assay in IHH cells; format: cell-based; details: GATA-Luc reporter, 48 h
T2 construct: expressed in transfected cells; host or cells: IHH
T2 sequence (P23769 1-480): T1 sequence (P23769 1-480)
Experimental: K7174 is a known GATA2 inhibitor. The IHH cells were transiently transfected with empty vector (for the NT) or human GATA2-expressing plasmid as well as pRL-TK (internal control) and GATA-Luc reporter plasmids. Cells were exposed to DMSO vehicle or compounds for 48 h. Experiments were in triplicate.

[2] = tested on: interferon signaling pathway in THP-1 cells; experiment: Western blot, interferon signaling in THP-1 cells; format: cell-based; details: 16 hours
Experimental: THP1 cells were treated for 16 hours with the indicated concentration (μM) of compounds or DMSO vehicle control. Whole-cell extracts were prepared and subjected to Western blot analysis with the antibodies as indicated.

human STING (hSTING) = target: T3, human STING (hSTING) (Homo sapiens, UniProt Q86WV6); experiment: hSTING ISRE-luc reporter assay in 293T cells; format: cell-based; details: 24 hours
T3 construct: expressed in transfected cells; host or cells: 293T
Experimental: ISRE-luc (reporter), pRL-TK (internal control) and hSTING-expressing plasmids were transiently transfected into 293T cells. Cells were exposed to DMSO vehicle control or compounds for 24 hours. Experiments were done in triplicate.

mouse STING (mSTING) = target: T4, mouse STING (mSTING) (Mus musculus, UniProt Q3TBT3); experiment: mSTING ISRE-luc reporter assay in 293T cells; format: cell-based; details: 24 hours
T4 construct: expressed in transfected cells; host or cells: 293T
T4 sequence (Q3TBT3 1-378): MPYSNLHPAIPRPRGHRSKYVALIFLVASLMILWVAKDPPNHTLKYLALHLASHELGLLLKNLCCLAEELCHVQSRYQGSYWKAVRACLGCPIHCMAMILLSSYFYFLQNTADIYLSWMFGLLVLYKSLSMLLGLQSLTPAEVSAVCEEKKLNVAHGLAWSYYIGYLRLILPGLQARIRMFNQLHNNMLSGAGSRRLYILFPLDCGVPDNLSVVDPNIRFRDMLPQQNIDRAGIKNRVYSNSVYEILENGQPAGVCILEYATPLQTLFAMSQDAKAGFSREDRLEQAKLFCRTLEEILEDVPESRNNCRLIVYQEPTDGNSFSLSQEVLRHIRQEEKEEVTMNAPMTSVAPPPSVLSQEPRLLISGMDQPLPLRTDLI
Experimental: ISRE-luc (reporter), pRL-TK (internal control) and mSTING-expressing plasmids were transiently transfected into 293T cells. Cells were exposed to DMSO vehicle control or compounds for 24 hours. Experiments were done in triplicate.

[3] = target: T5, recombinant human KRAS 12D mutant protein (Homo sapiens, UniProt P01116, G12D); experiment: SPR analysis on amine-coupled KRAS (G12D mutant); format: binding
T5 construct: purchased ORIGENE TP700052
Experimental: FIG. 4.1 SPR analysis. Left panels, SPR sensorgrams for compounds 784 and 895 binding to 3500 RU amine-coupled KRAS (G12D mutant) at 25 μL/min in PBS-T containing 1 μM GDP. Right panels, corresponding non-linear regression analyses of steady-state binding responses versus concentration to determine apparent equilibrium dissociation constants (KD).
Since activation of KRAS leads to activation of NF-kB,^69 we performed in vitro screening of our compounds by KRAS mutant-dependent NF-kB-luc reporter assay in HEK293 cells. […] Also, compounds of the invention are cytotoxic to PANC 10.05 pancreatic cancer cells, H23 NSCLC cells and HCT-116 colorectal cancer cells (FIG. 4.5).

human GATA3 = target: T6, human GATA3 (Homo sapiens, UniProt P23771); experiment: GATA3-dependent reporter assay in IHH cells; format: cell-based; details: 48 hours, 10 μM
T6 construct: expressed in transfected cells; host or cells: IHH
Experimental: The IHH cells were transiently transfected with empty vector (for the NT) or human GATA3-expressing plasmid as well as pRL-TK (internal control) and GATA-Luc reporter plasmids. Cells were exposed to DMSO vehicle or compounds for 48 hours. Experiments were done in triplicate.

Panc 10.05 cells = experiment: Western blot, apoptosis (cleaved PARP) in Panc 10.05 cells; format: cell-based; details: 24 hours
Experimental: (§1) C-PARP, cleaved PARP. Panc10.05 cells were exposed to DMSO vehicle or compounds at designated doses for 24 hours.

[4] = tested on: phosphorylation of ERK in Panc 10.05 cells; experiment: Western blot, phosphorylation of ERK in Panc 10.05 cells; format: cell-based; details: designated doses, 24 hours
Experimental: as §1
Panc10.05 cells were exposed to DMSO vehicle or compounds at designated doses for 24 hours.

hSTING and/or mSTING = experiment: hSTING- or mSTING-dependent ISRE-luc reporter assay in 293T cells; format: cell-based; details: 24 hours
Experimental: ISRE-luc (reporter), pRL-TK (internal control) and hSTING- or mSTING-expressing plasmids were transiently transfected into 293T cells. Cells were exposed to DMSO vehicle control or compounds for 24 hours. Experiments were done in triplicate.

T3 sequence (Q86WV6 whole entry H232R): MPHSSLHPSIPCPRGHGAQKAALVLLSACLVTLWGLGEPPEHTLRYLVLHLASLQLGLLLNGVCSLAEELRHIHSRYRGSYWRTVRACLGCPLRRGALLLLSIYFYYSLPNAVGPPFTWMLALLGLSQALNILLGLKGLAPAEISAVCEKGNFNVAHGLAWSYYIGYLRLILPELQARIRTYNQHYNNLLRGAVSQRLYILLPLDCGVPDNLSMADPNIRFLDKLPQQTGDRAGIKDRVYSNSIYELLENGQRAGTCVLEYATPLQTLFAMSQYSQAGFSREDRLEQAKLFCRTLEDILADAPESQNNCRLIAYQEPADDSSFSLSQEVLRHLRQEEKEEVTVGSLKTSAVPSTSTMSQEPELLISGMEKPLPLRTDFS
T5 sequence (P01116 1-188 isoform P01116-2 G12D): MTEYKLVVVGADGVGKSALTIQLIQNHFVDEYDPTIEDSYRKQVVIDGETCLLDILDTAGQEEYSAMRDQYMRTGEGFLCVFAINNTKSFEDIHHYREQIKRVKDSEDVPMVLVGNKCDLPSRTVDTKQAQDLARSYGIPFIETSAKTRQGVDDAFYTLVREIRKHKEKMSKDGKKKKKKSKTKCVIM
T6 sequence (P23771 whole entry): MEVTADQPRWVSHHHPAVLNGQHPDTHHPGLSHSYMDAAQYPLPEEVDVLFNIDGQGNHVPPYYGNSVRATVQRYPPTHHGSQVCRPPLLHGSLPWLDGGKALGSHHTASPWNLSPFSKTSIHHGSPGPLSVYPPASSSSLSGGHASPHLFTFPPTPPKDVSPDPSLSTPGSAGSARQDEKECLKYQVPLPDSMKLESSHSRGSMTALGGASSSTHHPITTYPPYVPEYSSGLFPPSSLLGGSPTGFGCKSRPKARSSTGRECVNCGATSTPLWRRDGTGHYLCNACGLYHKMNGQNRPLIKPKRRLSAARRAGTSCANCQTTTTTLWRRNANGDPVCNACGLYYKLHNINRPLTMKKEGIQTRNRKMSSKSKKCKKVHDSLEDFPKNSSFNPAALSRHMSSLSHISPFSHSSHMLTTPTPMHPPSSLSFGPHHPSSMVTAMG

Structure (SMILES) | GATA2 inhibition in GATA2-dependent reporter assay (human GATA2) | activation of interferon signaling pathway (Western blot) [2] | activation of hSTING in ISRE-luc reporter assay (human STING (hSTING)) | activation of mSTING in ISRE-luc reporter assay (mouse STING (mSTING)) | further results
O=C(CC(O)(CCc1ccccc1)c1ccccc1)N1CCC(O)(c2ccccc2)CC1 (stereo not drawn) [Compound V248] | GATA2 inhibitors |  |  |  | binding to amine-coupled GATA2 (SPR) [1]: Direct binding; also recorded: Specific binding
Fc1cccc(-c2oc(CCCc3c[nH]c4ccccc34)nc2-c2ccco2)c1 [Compound 834] | GATA2 inhibitors | activate interferon signaling pathway | activate hSTING |  | 
FC(F)(F)c1ccc(-c2nc(CCCc3c[nH]c4ccccc34)oc2-c2ccc(C(F)(F)F)cc2)cc1 [Compound 672] |  |  | activate human STING (hSTING) | activate mouse STING (mSTING) | 
FC(F)(F)c1cccc(-c2nc(CCCc3c[nH]c4ccccc34)oc2-c2cccc(C(F)(F)F)c2)c1 [Compound 681] |  |  | activate human STING (hSTING) | activate mouse STING (mSTING) | 
O=C(Cc1c[nH]c2ccccc12)NCc1nc(-c2ccccc2)c(-c2ccccc2)o1 [Compound 784] | GATA2 inhibitors |  |  |  | direct binding with KRAS G12D mutant (SPR) [3]: Direct binding; Kd ([3]; PBS-T containing 1 μM GDP, steady-state): 190 µM; activity against GATA3 in GATA3-dependent reporter assay (human GATA3): inactive against GATA3; induction of apoptosis (cleaved PARP, Western blot) (Panc 10.05 cells): induced apoptosis; suppression of phosphorylation of ERK (Western blot) [4]: dose-dependently suppressed phosphorylation of ERK
Fc1cccc(-c2nc(CCc3c[nH]c4ccccc34)oc2-c2cccc(F)c2)c1 [Compound 761] |  | activate interferon signaling pathway | activate human STING (hSTING) | activate mouse STING (mSTING) | 
Fc1cccc(-c2nc(CNCCc3c[nH]c4ccccc34)[nH]c2-c2cccc(F)c2)c1 [Compound 874] |  | activate interferon signaling pathway |  |  | activation of hSTING and/or mSTING in ISRE-luc reporter assay (hSTING and/or mSTING): activate hSTING and/or mSTING; activation of hSTING and/or mSTING in ISRE-luc reporter assay (hSTING and/or mSTING; 10 μM): activate hSTING and/or mSting
